Assay results taken from patent US12577213B2 (NINGBO COMBIREG PHARMACEUTICAL TECHNOLOGY CO., LTD., priority 2020, dated 2026).
Read-outs that look alike come from different tables or passages of the source.

Tests used:
HS 578T (breast cancer) = test: NCI method SRB growth inhibition, HS 578T; assay type: cell-based; settings: Homo sapiens, HS578T, treated 48 hours, SRB stain
Outline: (§1)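 SRB absorbance at 515 nm was the read-out, taken after 48 h of compound treatment and compared with plates fixed just before dosing and with vehicle-treated plates. Values are concentrations giving 50% growth inhibition (GI50), total growth inhibition (TGI) or 50% cell kill (LC50).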

786-0 (renal cancer) = test: NCI method SRB growth inhibition, 786-0; assay type: cell-based; settings: Homo sapiens; 786-0, treated 48 hours, SRB stain
Outline: as §1

[1] = Liver microsomes stability; assay type: in vitro ADME, human; settings: for half-life at 1 μM: human, human liver microsomes
Outline: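 Compound at 1 μM final incubated with 1 mg/mL human liver microsomes and 1 mM NADPH (no-NADPH control), sampled at 0, 5, 15, 30, 60 min. Remaining parent quantified by LC-MS/MS; T1/2 = 0.693/k.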

[2] = test system: breast cancer cell line SUM159 sphere; test: Breast cancer stem cell sphere formation; assay type: cell-based, human; settings: 50 nM; for formation of the sphere after cell passage: 5 days of drug treatment, then passage
Description: The inhibitory effects of embodiment compounds 5, 7, 11, 13, 14, 20 and 21 on the formation of breast cancer cell line SUM159 sphere are described as follows.
The breast cancer cell line SUM159 sphere was cultured with serum-free medium in an ultra-low adsorption plate, the basal medium was DMEM/F12 (without phenol red), and B27 (without vitamin A) (1×), EGF (20 ng/ml), bFGF (20 ng/ml) and insulin (insulin, 5 ug/ml) were added.
An equal number (4000) of SUM159 cells per well were inoculated into an ultra-low adsorption 24 plate, and the sphere was photographed after 5 days of culture, replaced with fresh medium, and treated with drugs at certain concentrations, respectively. Compounds 5, 7, 11, 13, 14, 20 and 21 were evaluated in this experiment at 50 nM, respectively. The effect of the drug on the sphere phenotype could be observed after about 3 days of drug treatment. The sphere was photographed again after 5 days of drug treatment, and then the sphere was passaged. The sphere was photographed again after 7 days of passage.
The differences of the photographs taken in three different stages were counted and compared, and the killing effect of the tested compounds on SUM159 sphere was evaluated through the differences of sphere formation after passage, thus reflecting the inhibitory effects of different compounds on breast cancer stem cells.

[3] = test system: A549 (non-small cell lung cancer); test: NCI method SRB growth inhibition, A549; assay type: cell-based; settings: Homo sapiens; A549, treated 48 hours, SRB stain
Outline: as §1

OVCAR-3 (ovarian cancer) = test: NCI method SRB growth inhibition, OVCAR-3; assay type: cell-based; settings: Homo sapiens; OVCAR-3, treated 48 hours, SRB stain
Outline: as §1

LOX-IMVI (melanoma) = test: NCI method SRB growth inhibition, LOX-IMVI; assay type: cell-based; settings: Homo sapiens, treated 48 hours, SRB stain
Outline: as §1

HCT116 (colon cancer) = test: NCI method SRB growth inhibition, HCT116; assay type: cell-based; settings: Homo sapiens, HCT-116; HCT116, treated 48 hours, SRB stain
Outline: as §1

[4] = test system: SF295 (central nervous system tumor); test: NCI method SRB growth inhibition, SF295; assay type: cell-based; settings: Homo sapiens, SF-295; SF295, treated 48 hours, SRB stain
Outline: as §1

PC-3 (prostate cancer) = test: NCI method SRB growth inhibition, PC-3; assay type: cell-based; settings: Homo sapiens; PC-3, treated 48 hours, SRB stain
Outline: as §1

K562 (leukemia) = test: NCI method SRB growth inhibition, K562; assay type: cell-based; settings: Homo sapiens; K562, treated 48 hours, SRB stain
Outline: as §1

[5] = Metabolic stability in vivo (plasma half-life after IV); settings: intravenously at 1 mg/kg, male BALB/c nude mice
Description: The intravenous injection group of the embodiment compound was prepared with the mixed solvent of DMA:PEG400:30% SBECD=5:25:70 to form a 0.2 mg/mL of solution, and administered intravenously at 1 mg/kg of weight; and the oral preparation group was prepared with 0.5% MC to form a 1 mg/mL of solution, and administered by oral gavage at 10 mg/kg weight.
• Male BALB/c nude mice, 4-5 weeks old, purchased from Shanghai SLAC. 3. Experiment Method: 3.1 Instruments: • Liquid chromatography system: Shimadzu liquid chromatography system Shimadzu LC-30AD • MS/MS system: Applied Biosystems API5500 • Data collection: Analyst Software 1.5.2 3.2 Chromatographic Conditions Chromatographic Column • Analytical column: Kinetex 2.6u C18 100 A column (3.0 mm×30 mm) • Mobile phase: A: 10 mM NH4OAc (0.1% FA); B: Acetonitrile with 0.1% […] • Flow rate: 1.0 mL/min
Ion source was an electron spray ionization (ESI source) with negative ion detection; spray voltage source was 5500 V; ion source gas 1 (N2) was 50 psi; ion source gas 2 (N2) was 50 psi; air curtain gas (N2) was 30 psi. Scanning mode was multiple reaction monitoring (MRM); scanning time was 80 ms; collision gas pressure was 10 psi;
Grouping experiment, with three animals in each group, starting from now on, administration was started according to the weight of the animals. Blood was collected according to 5 min, 15 min, 30 min, 1 h, 2 h, 4 h, 8 h and 24 h after administration.
To 25.0 μL of plasma, 25.0 μL of internal standard solution (Tolbutamide (250 ng/mL) in acetonitrile), 25.0 μL of acetonitrile and 100 μL of acetonitrile were added, and the mixture was vortexed for 1 min, and centrifuged for 5 min (14000 rpm). 120 μL of the resulting supernatant was added with 80.0 μL of water (containing 1% formic acid) and mixed well, then analyzed by LC/MS/MS.

[6] = 1 μM compound, 1 mg/mL human liver microsomes, 1 mM NADPH
[7] = 1 μM compound, 1 mg/mL human liver microsomes, 1 mM NADPH, read-out: T½ of HLM
[8] = as repeated in Table 4, read-out: T½ of HLM (in vitro)

Row | microsomal CLint at 1 μM [1, 6] [µL/min/mg] | half-life at 1 μM [1, 7] [min] | T½ of (IV in nude mice) [5] [min] | half-life at 1 μM [1, 8] [min] | half-life ([5]; mouse, plasma, iv, read-out: T½ of (IV in nude mice) (converted)) [min] | Compound | GI50 (HS 578T (breast cancer)) [nM] | GI50 (786-0 (renal cancer)) [nM] | killing effect on SUM159 sphere [2] | formation of the sphere after cell passage [2] | GI50 [3] [nM] | GI50 (OVCAR-3 (ovarian cancer)) [nM] | GI50 (LOX-IMVI (melanoma)) [nM] | GI50 (HCT116 (colon cancer)) [nM] | GI50 [4] [nM] | GI50 (PC-3 (prostate cancer)) [nM] | GI50 (K562 (leukemia)) [nM]
1 | 11.3 | 61.3 | – | – | – | [2H]C([2H])([2H])Oc1cc(C(=O)Nc2cc3c(cc2Oc2cc(C)cc(C)c2)C(=O)N(C)[C@@H](CC(=O)N(C([2H])([2H])[2H])C([2H])([2H])[2H])C(=O)N3)c(Br)c(OC([2H])([2H])[2H])c1OC([2H])([2H])[2H] [Compound 14, (S)-2-bromo-N-[3-[2-[bis(trideuteromethyl)amino]-2-oxoethyl]-7-(3,5-dimethylphenoxy)-4-methyl-2,5-dioxo-2,3,4,5-tetrahydro-1H-benzo[e][1,4]diazepin-8-yl]-3,4,5-tris(trideuteromethoxy)benzamide] | – | 5 | strong killing effect | significantly reduced | < 5 | < 5 | < 5 | < 5 | < 5 | < 5 | < 5
2 | 7.6 | 91.2 | – | – | – | [2H]C([2H])([2H])Oc1cc(C(=O)Nc2cc3c(cc2Oc2cc(C)cc(C)c2)C(=O)N[C@@H](CC(=O)N(OC)C([2H])([2H])[2H])C(=O)N3)c(Br)c(OC([2H])([2H])[2H])c1OC([2H])([2H])[2H] [Compound 41] | < 5 | < 5 | – | – | < 5 | < 5 | < 5 | < 5 | < 5 | < 5 | < 5
3 | 63.1 | 11 | 31.9 | 11 | – | CCN(CC)C(=O)C[C@H]1C(=O)Nc2cc(NC(=O)c3cc(OC)c(OC)c(OC)c3Br)c(Oc3cc(C)cc(C)c3)cc2C(=O)N1C [a, reference compound] | – | – | – | – | – | – | – | – | – | – | –
4 | – | – | – | 100 | 46.6 | COc1cc(C(=O)Nc2cc3c(cc2Oc2cc(C)cc(C)c2)C(=O)N[C@@H](CC(=O)N(C)C)C(=O)N3)c(Br)c(OC)c1OC [d, reference compound] | – | – | – | – | – | – | – | – | – | – | –

The next lines start with the compound.

Row | Compound | microsomal CLint at 1 μM [1, 6] [µL/min/mg] | half-life at 1 μM [1, 7] [min] | T½ of (IV in nude mice) [5] [min] | half-life at 1 μM [1, 8] [min] | half-life ([5]; mouse, plasma, iv, read-out: T½ of (IV in nude mice) (converted)) [min] | GI50 (HS 578T (breast cancer)) [nM] | GI50 (786-0 (renal cancer)) [nM] | killing effect on SUM159 sphere [2] | formation of the sphere after cell passage [2] | GI50 [3] [nM] | GI50 (OVCAR-3 (ovarian cancer)) [nM] | GI50 (LOX-IMVI (melanoma)) [nM] | GI50 (HCT116 (colon cancer)) [nM] | GI50 [4] [nM] | GI50 (PC-3 (prostate cancer)) [nM] | GI50 (K562 (leukemia)) [nM]
5 | [2H]C([2H])([2H])C([2H])([2H])N(C(=O)C[C@@H]1NC(=O)c2cc(Oc3cc(C)cc(C)c3)c(NC(=O)c3cc(OC)c(OC)c(OC)c3Br)cc2NC1=O)C([2H])([2H])C([2H])([2H])[2H] [Compound 7, (S)-2-bromo-N-[3-[2-[bis(pentadeuteroethyl)amino]-2-oxoethyl]-7-(3,5-dimethylphenoxy)-2,5-dioxo-2,3,4,5-tetrahydro-1H-benzo[e][1,4]diazepin-8-yl]-3,4,5-trimethoxybenzamide] | 13.9 | 49.9 | – | – | – | 8.2 | 6.5 | strong killing effect | significantly reduced | < 5 | < 5 | < 5 | < 5 | < 5 | < 5 | –
6 | [2H]C([2H])([2H])C([2H])([2H])N(C(=O)C[C@H]1C(=O)Nc2cc(NC(=O)c3cc(OC)c(OC)c(OC)c3Br)c(Oc3cc(C)cc(C)c3)cc2C(=O)N1C)C([2H])([2H])C([2H])([2H])[2H] [Compound 11, (S)-2-bromo-N-[3-[2-[bis(pentadeuteroethyl)amino]-2-oxoethyl]-7-(3,5-dimethylphenoxy)-4-methyl-2,5-dioxo-2,3,4,5-tetrahydro-1H-benzo[e][1,4]diazepin-8-yl]-3,4,5-trimethoxybenzamide] | 28.2 | 24.6 | – | – | – | < 5 | 10.4 | strong killing effect | significantly reduced | < 5 | < 5 | < 5 | 15.7 | 10.9 | < 5 | < 5
7 | [2H]C([2H])([2H])Oc1cc(C(=O)Nc2cc3c(cc2Oc2cc(C)cc(C)c2)C(=O)N(C)[C@@H](CC(=O)N(C([2H])([2H])C([2H])([2H])[2H])C([2H])([2H])C([2H])([2H])[2H])C(=O)N3)c(Br)c(OC([2H])([2H])[2H])c1OC([2H])([2H])[2H] [Compound 13, (S)-2-bromo-N-[3-[2-[bis(pentadeuteroethyl)amino]-2-oxoethyl]-7-(3,5-dimethylphenoxy)-4-methyl-2,5-dioxo-2,3,4,5-tetrahydro-1H-benzo[e][1,4]diazepin-8-yl]-3,4,5-tris(trideuteromethoxy)benzamide] | 14.8 | 46.8 | – | – | – | < 5 | 11.5 | strong killing effect | significantly reduced | < 5 | < 5 | < 5 | < 5 | 7.5 | < 5 | < 5
8 | [2H]C([2H])([2H])Oc1cc(C(=O)Nc2cc3c(cc2Oc2cc(C)cc(C)c2)C(=O)N[C@@H](CC(=O)N(C([2H])([2H])[2H])C([2H])([2H])[2H])C(=O)N3)c(Br)c(OC([2H])([2H])[2H])c1OC([2H])([2H])[2H] [Compound 21, (S)-2-bromo-N-[3-[2-[bis(trideuteromethyl)amino]-2-oxoethyl]-7-(3,5-dimethylphenoxy)-2,5-dioxo-2,3,4,5-tetrahydro-1H-benzo[e][1,4]diazepin-8-yl]-3,4,5-tris(trideuteromethoxy)benzamide] | – | – | – | – | – | – | 12.9 | strong killing effect | significantly reduced | 6.1 | < 5 | < 5 | < 5 | 11.3 | < 5 | < 5
